Data published in US20260265189A1, “NOVEL COMPOUND, AND PHARMACEUTICAL COMPOSITION COMPRISING SAME AS ACTIVE INGREDIENT” (SAPIENSBIO INC., priority 2022, published 2026).

Test system: α-SMA expression in MRC5 cells
Experiment: inhibition of α-SMA expression in MRC5 cells, image screening method
Assay type: cell-based
Conditions: Homo sapiens; MRC5, compound 10 μM, TGF-β1 5 ng/mL, 72 hours, relative to TGF-β1 alone; read-out: Inhibitory activity (α-SMA expression inhibition)
Protocol: The ability of the compounds according to the present invention to inhibit the expression of α-SMA, which is a biomarker for pulmonary fibrosis, was evaluated by an image screening method. MRC5 cells were treated with the compound (10 μM) or DMSO under the condition of TGF-31 (5 ng/mL). 72 hours later, the cells were fixed with a 4% formaldehyde solution, treated with a 0.1% Triton-x100 solution, and treated with a 1% BSA solution to mask non-specific binding caused by antibodies. Anti-α-SMA-FITC (Sigma Aldrich) and anti-GAPDH (Cell Signaling Technology) were used as primary antibodies, and anti-mouse-TRITC was used as a secondary antibody. Imaging and analysis of the results were performed using Cytation5_Gen5_Version 3.12.08 (Bio Tek). Relative to the α-SMA expression level when TGF-31 was treated alone, the α-SMA expression level when both the compound and TGF-31 were treated was calculated as the ability of α-SMA expression inhibition of the corresponding compound.

Compound	inhibition at 10 µM [%]
O=C(N[C@@H]1CCNC1)N1CCN(c2ccc(F)cc2)c2cc(F)ccc21 [Compound 1, (R)-6-fluoro-4-(4-fluorophenyl)-N-(pyrrolidin-3-yl)-3,4-dihydroquinoxaline-1(2H)-carboxamide]	≥ 70
CN1CC[C@@H](NC(=O)N2CCN(c3ccc(F)cc3)c3cc(F)ccc32)C1 [Compound 2, (R)-6-fluoro-4-(4-fluorophenyl)-N-(1-methylpyrrolidin-3-yl)-3,4-dihydroquinoxaline-1(2H)-carboxamide]	≥ 70
CC(C)N1CC[C@@H](NC(=O)N2CCN(c3ccc(F)cc3)c3cc(F)ccc32)C1 [Compound 3, (R)-6-fluoro-4-(4-fluorophenyl)-N-(1-isopropylpyrrolidin-3-yl)-3,4-dihydroquinoxaline-1(2H)-carboxamide]	≥ 70
CC(C)CN1CC[C@@H](NC(=O)N2CCN(c3ccc(F)cc3)c3cc(F)ccc32)C1 [Compound 4, (R)-6-fluoro-4-(4-fluorophenyl)-N-(1-isobutylpyrrolidin-3-yl)-3,4-dihydroquinoxaline-1(2H)-carboxamide]	≥ 70
O=C(N[C@@H]1CCN(C(=O)C(F)(F)F)C1)N1CCN(c2ccc(F)cc2)c2cc(F)ccc21 [Compound 5, (R)-6-fluoro-4-(4-fluorophenyl)-N-(1-(2,2,2-trifluoroacetyl)pyrrolidin-3-yl)-3,4-dihydroquinoxaline-1(2H)-carboxamide]	10 to 30
CC(=O)N1CC[C@@H](NC(=O)N2CCN(c3ccc(F)cc3)c3cc(F)ccc32)C1 [Compound 6, (R)-N-(1-acetylpyrrolidin-3-yl)-6-fluoro-4-(4-fluorophenyl)-3,4-dihydroquinoxaline-1(2H)-carboxamide]	10 to 30
CS(=O)(=O)N1CC[C@@H](NC(=O)N2CCN(c3ccc(F)cc3)c3cc(F)ccc32)C1 [Compound 7, (R)-6-fluoro-4-(4-fluorophenyl)-N-(1-(methylsulfonyl)pyrrolidin-3-yl)-3,4-dihydroquinoxaline-1(2H)-carboxamide]	10 to 30
O=C(N[C@H]1CCNC1)N1CCN(c2ccc(F)cc2)c2cc(F)ccc21 [Compound 8, (S)-6-fluoro-4-(4-fluorophenyl)-N-(pyrrolidin-3-yl)-3,4-dihydroquinoxaline-1(2H)-carboxamide]	≥ 70
CN1CC[C@H](NC(=O)N2CCN(c3ccc(F)cc3)c3cc(F)ccc32)C1 [Compound 9, (S)-6-fluoro-4-(4-fluorophenyl)-N-(1-methylpyrrolidin-3-yl)-3,4-dihydroquinoxaline-1(2H)-carboxamide]	50 to 70
CC(C)N1CC[C@H](NC(=O)N2CCN(c3ccc(F)cc3)c3cc(F)ccc32)C1 [Compound 10, (S)-6-fluoro-4-(4-fluorophenyl)-N-(1-isopropylpyrrolidin-3-yl)-3,4-dihydroquinoxaline-1(2H)-carboxamide]	≥ 70
N[C@H]1CCN(C(=O)N2CCN(c3ccc(F)cc3)c3cc(F)ccc32)C1 [Compound 11, (S)-(3-aminopyrrolidin-1-yl)(6-fluoro-4-(4-fluorophenyl)-3,4-dihydroquinoxalin-1(2H)-yl)methanone]	30 to 50
CN[C@H]1CCN(C(=O)N2CCN(c3ccc(F)cc3)c3cc(F)ccc32)C1 [Compound 12, (S)-(6-fluoro-4-(4-fluorophenyl)-3,4-dihydroquinoxalin-1(2H)-yl)(3-(methylamino)pyrrolidin-1-yl)methanone]	30 to 50
CC(C)CN[C@H]1CCN(C(=O)N2CCN(c3ccc(F)cc3)c3cc(F)ccc32)C1 [Compound 13, (S)-(6-fluoro-4-(4-fluorophenyl)-3,4-dihydroquinoxalin-1(2H)-yl)(3-(isobutylamino)pyrrolidin-1-yl)methanone]	≥ 70
CC(C)N[C@H]1CCN(C(=O)N2CCN(c3ccc(F)cc3)c3cc(F)ccc32)C1 [Compound 14, (S)-(6-fluoro-4-(4-fluorophenyl)-3,4-dihydroquinoxalin-1(2H)-yl)(3-(isopropylamino)pyrrolidin-1-yl)methanone]	30 to 50
CC(=O)N[C@H]1CCN(C(=O)N2CCN(c3ccc(F)cc3)c3cc(F)ccc32)C1 [Compound 15, (S)-N-(1-(6-fluoro-4-(4-fluorophenyl)-1,2,3,4-tetrahydroquinoxaline-1-carbonyl)pyrrolidin-3-yl)acetamide]	10 to 30
CS(=O)(=O)N[C@H]1CCN(C(=O)N2CCN(c3ccc(F)cc3)c3cc(F)ccc32)C1 [Compound 16, (S)-N-(1-(6-fluoro-4-(4-fluorophenyl)-1,2,3,4-tetrahydroquinoxaline-1-carbonyl)pyrrolidin-3-yl)methanesulfonamide]	10 to 30
O=C(NC[C@H]1CCNC1)N1CCN(c2ccc(F)cc2)c2cc(F)ccc21 [Compound 17, (S)-6-fluoro-4-(4-fluorophenyl)-N-(pyrrolidin-3-ylmethyl)-3,4-dihydroquinoxaline-1(2H)-carboxamide]	30 to 50

Compound	inhibition at 10 µM [%]
CN1CC[C@H](CNC(=O)N2CCN(c3ccc(F)cc3)c3cc(F)ccc32)C1 [Compound 18, (R)-6-fluoro-4-(4-fluorophenyl)-N-((1-methylpyrrolidin-3-yl)methyl)-3,4-dihydroquinoxaline-1(2H)-carboxamide]	50 to 70
CC(C)N1CC[C@H](CNC(=O)N2CCN(c3ccc(F)cc3)c3cc(F)ccc32)C1 [Compound 19, (R)-6-fluoro-4-(4-fluorophenyl)-N-((1-isopropylpyrrolidin-3-yl)methyl)-3,4-dihydroquinoxaline-1(2H)-carboxamide]	50 to 70
CC(C)CN1CC[C@H](CNC(=O)N2CCN(c3ccc(F)cc3)c3cc(F)ccc32)C1 [Compound 20, (R)-6-fluoro-4-(4-fluorophenyl)-N-((1-isobutylpyrrolidin-3-yl)methyl)-3,4-dihydroquinoxaline-1(2H)-carboxamide]	≥ 70
O=C(NC[C@H]1CCCN1)N1CCN(c2ccc(F)cc2)c2cc(F)ccc21 [Compound 21, (R)-6-fluoro-4-(4-fluorophenyl)-N-(pyrrolidin-2-ylmethyl)-3,4-dihydroquinoxaline-1(2H)-carboxamide]	≥ 70
CN1CCC[C@@H]1CNC(=O)N1CCN(c2ccc(F)cc2)c2cc(F)ccc21 [Compound 22, (R)-6-fluoro-4-(4-fluorophenyl)-N-((1-methylpyrrolidin-2-yl)methyl)-3,4-dihydroquinoxaline-1(2H)-carboxamide]	≥ 70
CC(C)N1CCC[C@@H]1CNC(=O)N1CCN(c2ccc(F)cc2)c2cc(F)ccc21 [Compound 23, (R)-6-fluoro-4-(4-fluorophenyl)-N-((1-isopropylpyrrolidin-2-yl)methyl)-3,4-dihydroquinoxaline-1(2H)-carboxamide]	≥ 70
CC(C)CN1CCC[C@@H]1CNC(=O)N1CCN(c2ccc(F)cc2)c2cc(F)ccc21 [Compound 24, (R)-6-fluoro-4-(4-fluorophenyl)-N-((1-isobutylpyrrolidin-2-yl)methyl)-3,4-dihydroquinoxaline-1(2H)-carboxamide]	≥ 70
CN1CC[C@@H](CNC(=O)N2CCN(c3ccc(F)cc3)c3cc(F)ccc32)C1 [Compound 25, (S)-6-fluoro-4-(4-fluorophenyl)-N-((1-methylpyrrolidin-3-yl)methyl)-3,4-dihydroquinoxaline-1(2H)-carboxamide]	50 to 70
CC(C)N1CC[C@@H](CNC(=O)N2CCN(c3ccc(F)cc3)c3cc(F)ccc32)C1 [Compound 26, (S)-6-fluoro-4-(4-fluorophenyl)-N-((1-isopropylpyrrolidin-3-yl)methyl)-3,4-dihydroquinoxaline-1(2H)-carboxamide]	50 to 70
CC(C)CN1CC[C@@H](CNC(=O)N2CCN(c3ccc(F)cc3)c3cc(F)ccc32)C1 [Compound 27, (S)-6-fluoro-4-(4-fluorophenyl)-N-((1-isobutylpyrrolidin-3-yl)methyl)-3,4-dihydroquinoxaline-1(2H)-carboxamide]	≥ 70
O=C(NCC1CC1)N1CCN(c2ccc(F)cc2)c2cc(F)ccc21 [Compound 28, N-(cyclopropylmethyl)-6-fluoro-4-(4-fluorophenyl)-3,4-dihydroquinoxaline-1(2H)-carboxamide]	10 to 30
O=C(NC1CCNCC1)N1CCN(c2ccc(F)cc2)c2cc(F)ccc21 [Compound 29, 6-fluoro-4-(4-fluorophenyl)-N-(piperidin-4-yl)-3,4-dihydroquinoxaline-1(2H)-carboxamide]	50 to 70
CN1CCC(NC(=O)N2CCN(c3ccc(F)cc3)c3cc(F)ccc32)CC1 [Compound 30, 6-fluoro-4-(4-fluorophenyl)-N-(1-methylpiperidin-4-yl)-3,4-dihydroquinoxaline-1(2H)-carboxamide]	50 to 70
CC(C)N1CCC(NC(=O)N2CCN(c3ccc(F)cc3)c3cc(F)ccc32)CC1 [Compound 31, 6-fluoro-4-(4-fluorophenyl)-N-(1-isopropylpiperidin-4-yl)-3,4-dihydroquinoxaline-1(2H)-carboxamide]	50 to 70
O=C(NCC1CCNCC1)N1CCN(c2ccc(F)cc2)c2cc(F)ccc21 [Compound 33, 6-fluoro-4-(4-fluorophenyl)-N-(piperidin-4-ylmethyl)-3,4-dihydroquinoxaline-1(2H)-carboxamide]	50 to 70
CN1CCC(CNC(=O)N2CCN(c3ccc(F)cc3)c3cc(F)ccc32)CC1 [Compound 34]	50 to 70
